# Assay results published in patent US6890951B2, “Treatment of addiction and addiction-related behavior” (Brookhaven Science Associates LLC, priority 1998, dated 2005).
# Entries after “also recorded” stand apart in the source; their conditions may differ.
# What was measured:
# [1] = in vivo; cited from earlier work
# [2] = tested on: rats; assay: Nicotine-induced conditioned place preference; assay type: in vivo
# Excerpt: A total of 8 rats were examined for each treatment pairing. Animals received 4 pairings over an 8 day period, one pairing per day. […] The protocol on days 1 and 2 was repeated 3 additional times.
# The CPP apparatus was made entirely of plexiglass, except for the floor in one of the pairing chambers, which was made of a stainless steel plate with holes (0.5 mm in diameter) spaced 0.5 mm from edge to edge. The two pairing chambers differed in visual and tactile cues. One chamber was entirely light blue with the stainless steel floor and the second chamber was light blue with horizontal black stripes (2.5 cm wide) spaced 3.8 cm apart with a smooth plexiglass floor.
# The conditioning procedure consisted of 20 sessions carried out consecutively over 20 days. The first three sessions were habituation sessions, during which the animals were handled for 5 minutes per day and exposed to the sights and sounds of the test room. […] The amount of time spent in each chamber was recorded using an automated infrared beam electronically coupled to a timer.
# The animals were habituated as described above. […] Subsequently, the animals were then placed into the appropriate chamber for 30 minutes. This was repeated for 8 pairings over a 16 day period. On the test day, animals were placed in the CPP apparatus and allowed free access to the all of the CPP chambers and the amount of time spent in chamber was recorded.
# [3] = acquisition, GVG 37.5 mg/kg i.p. 2.5 hours before nicotine 0.4 mg/kg s.c., 8 pairings
# [4] = acquisition, GVG 75 mg/kg i.p. 2.5 hours before nicotine 0.4 mg/kg s.c., 8 pairings
# [5] = acquisition, GVG 75 mg/kg i.p. 2.5 hours prior to nicotine 0.4 mg/kg s.c. (Table XII)
# [6] = expression, Saline/Nicotine pairings, GVG 37.5 mg/kg on test day
# [7] = expression, Saline/Nicotine pairings, GVG 75 mg/kg on test day
# [8] = expression, Saline/Nicotine pairings, GVG 150 mg/kg on test day
compound,measurement,setting,value
"C=CC(N)CCC(=O)O (racemic) [GVG, 4-amino-5-hexanoic acid]",excretion,[1],excreted primarily unchanged in the urine; also recorded: excreted primarily in the unchanged form by the kidneys
same,interaction with the hepatic microsomal enzymes,[1],does not interact with the hepatic microsomal enzymes
same,acquisition of nicotine-induced CPP,[2]; GVG 37.5 mg/kg,did not significantly block and not
same,acquisition phase of nicotine-induced CPP,[2]; GVG 75 mg/kg,significantly blocked; also recorded: abolish
same,"Time spent in chambers, Paired",[2]; [3],8.8 ± 0.5 min
same,"Time spent in chambers, Unpaired",[2]; [3],6.2 ± 0.5 min
same,"Time spent in chambers, Paired",[2]; [4],6.9 ± 0.9 min
same,"Time spent in chambers, Unpaired",[2]; [4],8.1 ± 0.9 min
same,"Time spent in chambers, Paired",[2]; [5],6.4 ± 0.3^4 min
same,"Time spent in chambers, Unpaired",[2]; [5],8.6 ± 0.3^5 min
same,"Time spent in chambers, Paired",[2]; [6],6.8 ± 1.0 min
same,"Time spent in chambers, Unpaired",[2]; [6],8.2 ± 1.0 min
same,"Time spent in chambers, Paired",[2]; [7],6.4 ± 0.3 min
same,"Time spent in chambers, Unpaired",[2]; [7],8.6 ± 0.3 min
same,"Time spent in chambers, Paired",[2]; [8],5.0 ± 0.9 min
same,"Time spent in chambers, Unpaired",[2]; [8],10.0 ± 0.9 min
